Patent US20230280275A1, “PHOTOACTIVATABLE VIBRATIONAL PROBES AND USES THEREOF” (California Institute of Technology, priority 2021, published 2023)

How the values were obtained:
[1] = Spontaneous Raman / hyperspectral SRS spectroscopy of probes and uncaged alkynes; type: physicochemical
Description: An integrated laser (picoEMERALD, Applied Physics and Electronics, Inc.) was used as a light source for both pump and Stokes beams. It produces 2 ps pump (tunable from 770 nm - 990 nm, bandwidth 0.5 nm, spectral bandwidth ~ 7 cm-1 ) and Stokes (1031.2 nm, spectral bandwidth 10 cm-1 ) beams with 80 MHz repetition rate. Stokes beam is modulated at 20 MHz by an internal electro-optic modulator. The spatially and temporally overlapped pump and Stokes beams are introduced into an inverted multiphoton laser scanning microscopy (FV3000, Olympus), and then focused onto the sample by a 25X water objective (XLPLN25XWMP, 1.05 N.A., Olympus). Transmitted pump and Stokes beams are collected by a high N.A. condenser lens (oil immersion, 1.4 N.A., Olympus) and pass through a bandpass filter (893/209 BrightLine, 25 mm, AVR Optics) to filter out Stokes beam. A large area (10×10 mm) Si photodiode (S3590-09, Hamamatsu) is used to measure the remaining pump beam intensity. 64 V DC voltage was used on the photodiode to increase saturation threshold and reduce response time. The output current is terminated by a 50 Ω terminator and pre-filtered by an 19.2-23.6-MHz band-pass filter (BBP-21.4+, Mini-Circuits) to reduce laser and scanning noise. The signal is then demodulated by a lock-in amplifier (SR844, Stanford Research Systems) at the modulation frequency. The in-phase X output is fed back to the Olympus IO interface box (FV30-ANALOG) of the microscope. Image acquisition speed is limited by 30 µs time constant set for the lock-in amplifier. Correspondingly, we use 80 µs pixel dwell time, which gives a speed of 8.5 s frame-1 for a 320-by-320-pixel field of view. Laser powers are monitored through image acquisition by an internal power meter and power fluctuation are controlled within 5% by the laser system. 16-bit grey scale images are acquired by Fluoview software. SRS spectra were acquired by fixing the Stokes beam at 1031.2 nm and scanning the pump beam through the designated wavelength range point by point. 10 mM EdU (H2O) sample was used as a standard to give RIE of different probes. Fluorescence images were collected using the same Olympus FV3000 confocal microscope with CW laser excitation (405, 488, 561 and 640 nm, Coherent OBIS LX laser) and standard bandpass filter sets. The correlation coefficients (Pearson’s R value) between SRS images and fluorescence images were calculated using ‘Coloc 2’ tool of ImageJ.
To perform spontaneous Raman spectroscopy, spontaneous Raman spectra were acquired using an upright confocal Raman spectrometer (Horiba Raman microscope; Xplora plus). A 532 nm YAG laser is used to illuminate the sample with a power of 12 mW on sample through a 100 x, N.A. 0.9 objective (MPLANN; Olympus) with 100 µm slit and 500 µm hole. Spectro/Raman shift center was set to be 2000.04 cm-1 . With a 1200 grating, Raman shift ranges from 690.81 cm-1 to 3141.49 cm-1 was acquired to cover whole biological relevant Raman peaks. The acquired spectra were processed by the LabSpec 6 software for baseline correction.
Cyclopropenone caging has been previously adopted for photoactivation and subsequent biorthogonal labeling of fluorophores in fluorescence microscopy. […] Herein the alkyne Raman signal generation from photo-DIBO light-activation was first measured (FIG. 1A). […] Compared to 5-ethynyl-2′-deoxyuridine (EdU), the well-adopted benchmark for Raman intensity quantification, the relative Raman intensity to EdU (RIE) of the strained alkyne DIBO is only 1.8 (Table 1). […] Given this, it is reasoned that diphenylcyclopropenone (i.e. cyclopropenone-caged 1-yne, 1-cyclo, 1, FIG. 1A) should be a better photoactivatable Raman scaffold with higher Raman sensitivity after uncaging. Indeed, UV-uncaging of 1-cyclo (1), which started from a similarly weak Raman peak at 1860 cm^-1 from photo-DIBO, produced an intense sharp peak for 1-yne (2) at 2226 cm^-1 (FIG. 1B, dashed black vs solid blue spectra) with an improved RIE values to about 4

[2] = Photoactivation (UV-uncaging) monitored by time-series spontaneous Raman spectra; type: physicochemical; details: 365 nm illumination (15 mW/cm^2); increase of alkyne peak 2226 cm^-1
Procedure: The 365 nm UV light used to activate cyclopropenones comes from a UV handlamp (Analytik Jena UVP EL Series Lamp, UVLS-24, 4 Watt, 2 UV 254/365 nm, typically used for TLC monitoring in organic synthesis). The power of 365 nm UV of this handlamp was measured to be 15 mW/cm2 on samples.
Next, the photo-uncaging kinetics for both 1-cyclo (1) and 2-cyclo (3) were compared. […] With 365 nm lamp illumination, the characteristic peaks of cyclopropenones (~1860 cm^-1) continue to drop while the alkyne peaks (2226 cm^-1) gradually increase for both molecules (FIG. 1D). […] The progression of the UV-activation reactions could also be confirmed by the change in the corresponding absorption spectra (FIG. 6).

[3] = UV-Vis absorption spectra; type: physicochemical; details: 20 uM in DMSO
Procedure: UV-Vis absorption spectra were recorded on a Varian Cary 50 UV-Vis Spectrophotometer (Agilent).

live HeLa cells [4] = assay: SRS imaging of live HeLa cells incubated with unmethylated probes before and after 405 nm illumination; type: cell-based; details: 20 µM, 30 minutes of labeling; 2226 cm^-1 channel after 405 nm
Procedure: FIG. 7 provides exemplary results from SRS imaging of live HeLa cells incubated with 1-cyclo (1, 20 µM, 30 minutes of labeling, top) and Cyclo-Mito (7, 20 µM, 30 minutes of labeling, bottom) at the CH3 (2940 cm^-1) channel, and the expected uncaged alkyne channel (2226 cm^-1) before and after 405 nm illumination. Scale bar: 10 µm.
An integrated laser (picoEMERALD, Applied Physics and Electronics, Inc.) was used as a light source for both pump and Stokes beams. It produces 2 ps pump (tunable from 770 nm - 990 nm, bandwidth 0.5 nm, spectral bandwidth ~ 7 cm-1 ) and Stokes (1031.2 nm, spectral bandwidth 10 cm-1 ) beams with 80 MHz repetition rate. Stokes beam is modulated at 20 MHz by an internal electro-optic modulator. […] Laser powers are monitored through image acquisition by an internal power meter and power fluctuation are controlled within 5% by the laser system. […] Fluorescence images were collected using the same Olympus FV3000 confocal microscope with CW laser excitation (405, 488, 561 and 640 nm, Coherent OBIS LX laser) and standard bandpass filter sets. The correlation coefficients (Pearson’s R value) between SRS images and fluorescence images were calculated using ‘Coloc 2’ tool of ImageJ.

[5] = reported value; cited from earlier work
live HeLa cells [6] = assay: Time lapse (pulse-chase) imaging of retained signal after photoactivation; type: cell-based; details: after 2 hours of chasing, 0 h = 100%
Procedure: FIG. 20 illustrates labeling signal and specificity evaluation during 2 hours of time lapse imaging in photoactivated Me-Mito-^13C (16) labeled live HeLa cells. Panel (a) is a plot showing quantification of retained signals after 1 hour and 2 hours imaging. The values of signals at 0 h were used as 100% signal reference. n = 6 independent experiments. Data shown as mean ± SEM. Panel (b) includes a series of representative time lapse imaging. The magnified images of the bottom cell (indicated by the dashed white box) are shown. Scale bar: 10 µm. The high mitochondria-labeling specificity of the mitochondria probe was confirmed for relatively long-term pulse-chase tracking applications. More than 85% of activated Me-Mito-^13C (16) signals retained in live HeLa cells after 2 hours of chasing ([…]) with well-maintained mitochondria labeling pattern (FIG. 20, panel b). In live HeLa cells labeled with Me-Mito-^13C (16), 405 nm laser was first used to pulse-activate the selected region of a single cell for 20 seconds (FIG. 5A, CH3, the white dashed box indicates the activation area). Immediately after photoactivation, SRS imaging at 2125 cm^-1 well resolved the distribution of mitochondria only from this activated subcellular region (FIG. 5A, Mito0 min, Pulse), implying high spatial selectivity. […]

With `O=c1c(-c2ccccc2)c1-c1ccccc1` [1-cyclo (1), diphenylcyclopropenone] the “RIE (relative Raman intensity to EdU)” value ([1]; 10 mM EdU (H2O) as standard) was 0.37, the “Raman Peak” value ([1]; cell silent region, model systems) was 1860 cm⁻¹ and the uncaging kinetics k [2] was 0.0044 s⁻¹. For the same compound, the Abs [3] was 302 nm, the εabs [3] was 28600 M⁻¹ cm⁻¹ and the “uncaging signals in labeled live cells” value (live HeLa cells [4]) was “did not produce any observable uncaging signals”. For the same compound, the quantum yield [5] was 0.78.
In the case of `Cc1cc(C)c(-[13c]2c(=O)[13c]2-c2c(C)cc(OCCC[P+](c3ccccc3)(c3ccccc3)c3ccccc3)cc2C)c(C)c1.[Br-]` [Me-Mito-^13C (16)], the “alkyne Raman peak / SRS channel after uncaging” value ([1]; organelle probes after UV / 405 nm uncaging) is reported as 2125 cm⁻¹ and the activated signals retained (live HeLa cells [6]) is reported as “More than 85%”.
